US20210127673A1, “HERBICIDES” (SYNGENTA PARTICIPATIONS AG, priority 2016, published 2021)

Tests used:
Assay type in all cases: in vivo
Zea Mays (ZEAMX) [1] = experiment: Post-emergence herbicidal activity, Zea Mays; design: key: 5=total damage to plant; 0=no damage to plant; details: 1000 g/ha, evaluated after 13 days, Test 2b
Experimental: (§1) Seeds of a variety of test species were sown in standard soil in pots: Triticum aestivium (TRZAW), Avena fatua (AVEFA), Alopecurus myosuroides (ALOMY), Echinochloa crus-galli (ECHCG), Lolium perenne (LOLPE), Zea Mays (ZEAMX), Abutilon theophrasti (ABUTH), Amaranthus retroflexus (AMARE) and Setaria faberi (SETFA). After 8 days cultivation (post-emergence) under controlled conditions in a glasshouse (at 24/16° C., day/night; 14 hours light; 65% humidity), the plants were sprayed with an aqueous spray solution derived from the formulation of the technical active ingredient in acetone/water (50:50) solution containing 0.5% Tween 20 (polyoxyethelyene sorbitan monolaurate, CAS RN 9005-64-5). The test plants were then grown in a glasshouse under controlled conditions (at 24/16° C., day/night; 14 hours light; 65% humidity) and watered twice daily. After 13 days, the test was evaluated (5=total damage to plant; 0=no damage to plant).

[2] = system: Amaranthus retroflexus (AMARE); experiment: Post-emergence herbicidal activity, Amaranthus retroflexus; design: key: 5=total damage to plant; 0=no damage to plant; details: 1000 g/ha, evaluated after 13 days, Test 2b
Experimental: as §1

Lolium perenne (LOLPE) [3] = experiment: Pre-emergence herbicidal activity, Lolium perenne; design: key: 5=total damage to plant; 0=no damage to plant; details: 1000 g/ha, evaluated after 13 days, Test 1b
In short: (§2)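 Pots of seeds were sprayed one day after sowing (pre-emergence) with compound in acetone/water (50:50) plus 0.5% Tween 20, then grown in a glasshouse at 24/16 °C day/night, 14 h light, 65% humidity. Damage scored 0–5 (5 = total damage) after 13 days.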

Setaria faberi (SETFA) [4] = experiment: Post-emergence herbicidal activity, Setaria faberi; design: key: 5=total damage to plant; 0=no damage to plant; details: 1000 g/ha, evaluated after 13 days, Test 2b
In short: (§3)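 Scores (0 no damage to 5 total damage) read 13 d after spraying. Plants sprayed post-emergence 8 d after sowing; spray solution acetone/water 50:50 with 0.5% Tween 20. Growth at 24/16 °C day/night, 14 h light, 65% RH, twice-daily watering.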

[5] = system: Amaranthus retroflexus (AMARE); experiment: Pre-emergence herbicidal activity, Amaranthus retroflexus; design: key: 5=total damage to plant; 0=no damage to plant; details: 1000 g/ha, evaluated after 13 days, Test 1b
Experimental: (§4) Seeds of a variety of test species were sown in standard soil in pots: Triticum aestivium (TRZAW), Avena fatua (AVEFA), Alopecurus myosuroides (ALOMY), Echinochloa crus-galli (ECHCG), Lolium perenne (LOLPE), Zea Mays (ZEAMX), Abutilon theophrasti (ABUTH), Amaranthus retroflexus (AMARE) and Setaria faberi (SETFA). After cultivation for one day (pre-emergence) under controlled conditions in a glasshouse (at 24/16° C., day/night; 14 hours light; 65% humidity), the plants were sprayed with an aqueous spray solution derived from the formulation of the technical active ingredient in acetone/water (50:50) solution containing 0.5% Tween 20 (polyoxyethelyene sorbitan monolaurate, CAS RN 9005-64-5). The test plants were then grown in a glasshouse under controlled conditions (at 24/16°, day/night; 14 hours light; 65% humidity) and watered twice daily. After 13 days, the test was evaluated (5=total damage to plant; 0=no damage to plant).

Zea Mays (ZEAMX) [6] = experiment: Pre-emergence herbicidal activity, Zea Mays; design: key: 5=total damage to plant; 0=no damage to plant; details: 1000 g/ha, evaluated after 13 days, Test 1b
Experimental: as §4

[7] = system: Echinochloa crus-galli (ECHCG); experiment: Pre-emergence herbicidal activity, Echinochloa crus-galli; design: key: 5=total damage to plant; 0=no damage to plant; details: 1000 g/ha, evaluated after 13 days, Test 1b
In short: as §2

Lolium perenne (LOLPE) [8] = experiment: Post-emergence herbicidal activity, Lolium perenne; design: key: 5=total damage to plant; 0=no damage to plant; details: 1000 g/ha, evaluated after 13 days, Test 2b
In short: as §3

[9] = system: Abutilon theophrasti (ABUTH); experiment: Pre-emergence herbicidal activity, Abutilon theophrasti; design: key: 5=total damage to plant; 0=no damage to plant; details: 1000 g/ha, evaluated after 13 days, Test 1b
Experimental: as §4

[10] = system: Abutilon theophrasti (ABUTH); experiment: Post-emergence herbicidal activity, Abutilon theophrasti; design: key: 5=total damage to plant; 0=no damage to plant; details: 1000 g/ha, evaluated after 13 days, Test 2b
Experimental: as §1

[11] = system: Echinochloa crus-galli (ECHCG); experiment: Post-emergence herbicidal activity, Echinochloa crus-galli; details: 1000 g/ha, evaluated after 13 days, Test 2b
In short: as §3

Setaria faberi (SETFA) [12] = experiment: Pre-emergence herbicidal activity, Setaria faberi; design: key: 5=total damage to plant; 0=no damage to plant; details: 1000 g/ha, evaluated after 13 days, Test 1b
In short: as §2

Compound: Cc1nc(-c2cncc(OC(F)F)c2)ccc1NC(=O)OC(C)(C)C [Compound B13]
- ZEAMX damage score (0-5) (Zea Mays (ZEAMX) [1]): 5
- AMARE damage score (0-5) [2]: 1
- LOLPE damage score (0-5) (Lolium perenne (LOLPE) [3]): 1
- SETFA damage score (0-5) (Setaria faberi (SETFA) [4]): 5
- AMARE damage score (0-5) [5]: 0
- ZEAMX damage score (0-5) (Zea Mays (ZEAMX) [6]): 2
- ECHCG damage score (0-5) [7]: 2
- LOLPE damage score (0-5) (Lolium perenne (LOLPE) [8]): 2
- ABUTH damage score (0-5) [9]: 0
- ABUTH damage score (0-5) [10]: 0
- ECHCG damage score (0-5) [11]: 3
- SETFA damage score (0-5) (Setaria faberi (SETFA) [12]): 3

Compound: CCN(C(=O)OC(C)(C)C)c1ccc(-c2cncc(F)c2)nc1C(F)(F)F [Compound B14]
- ZEAMX damage score (0-5) (Zea Mays (ZEAMX) [1]): 4
- AMARE damage score (0-5) [2]: 0
- LOLPE damage score (0-5) (Lolium perenne (LOLPE) [3]): 0
- SETFA damage score (0-5) (Setaria faberi (SETFA) [4]): 4
- AMARE damage score (0-5) [5]: 0
- ZEAMX damage score (0-5) (Zea Mays (ZEAMX) [6]): 0
- ECHCG damage score (0-5) [7]: 0
- LOLPE damage score (0-5) (Lolium perenne (LOLPE) [8]): 1
- ABUTH damage score (0-5) [9]: 4
- ABUTH damage score (0-5) [10]: 0
- ECHCG damage score (0-5) [11]: 2
- SETFA damage score (0-5) (Setaria faberi (SETFA) [12]): 0

Compound: CCOC(=O)Nc1ccc(-c2cncc(F)c2)nc1C(F)(F)F [Compound B15, ethyl N-[6-(5-fluoro-3-pyridyl)-2-(trifluoromethyl)-3-pyridyl]carbamate]
- ZEAMX damage score (0-5) (Zea Mays (ZEAMX) [1]): 5
- AMARE damage score (0-5) [2]: 1
- LOLPE damage score (0-5) (Lolium perenne (LOLPE) [3]): 0
- SETFA damage score (0-5) (Setaria faberi (SETFA) [4]): 4
- AMARE damage score (0-5) [5]: 0
- ZEAMX damage score (0-5) (Zea Mays (ZEAMX) [6]): 4
- ECHCG damage score (0-5) [7]: 1
- LOLPE damage score (0-5) (Lolium perenne (LOLPE) [8]): 2
- ABUTH damage score (0-5) [9]: 0
- ABUTH damage score (0-5) [10]: 0
- ECHCG damage score (0-5) [11]: 3
- SETFA damage score (0-5) (Setaria faberi (SETFA) [12]): 4

Compound: CC(C)OC(=O)Nc1ccc(-c2cncc(F)c2)nc1C(F)(F)F [Compound B16, isopropyl N-[6-(5-fluoro-3-pyridyl)-2-(trifluoromethyl)-3-pyridyl]carbamate]
- ZEAMX damage score (0-5) (Zea Mays (ZEAMX) [1]): 5
- AMARE damage score (0-5) [2]: 0
- LOLPE damage score (0-5) (Lolium perenne (LOLPE) [3]): 1
- SETFA damage score (0-5) (Setaria faberi (SETFA) [4]): 5
- AMARE damage score (0-5) [5]: 0
- ZEAMX damage score (0-5) (Zea Mays (ZEAMX) [6]): 5
- ECHCG damage score (0-5) [7]: 3
- LOLPE damage score (0-5) (Lolium perenne (LOLPE) [8]): 3
- ABUTH damage score (0-5) [9]: 0
- ABUTH damage score (0-5) [10]: 0
- ECHCG damage score (0-5) [11]: 4
- SETFA damage score (0-5) (Setaria faberi (SETFA) [12]): 4

Compound: CN(C(=O)OC(C)(C)C)c1ccc(-c2cncc(C(F)(F)F)c2)nc1C(F)(F)F [Compound B17]
- ZEAMX damage score (0-5) (Zea Mays (ZEAMX) [1]): 1
- AMARE damage score (0-5) [2]: 0
- LOLPE damage score (0-5) (Lolium perenne (LOLPE) [3]): 0
- SETFA damage score (0-5) (Setaria faberi (SETFA) [4]): 1
- AMARE damage score (0-5) [5]: 0
- ZEAMX damage score (0-5) (Zea Mays (ZEAMX) [6]): 0
- ECHCG damage score (0-5) [7]: 0
- LOLPE damage score (0-5) (Lolium perenne (LOLPE) [8]): 0
- ABUTH damage score (0-5) [9]: 0
- ABUTH damage score (0-5) [10]: 0
- ECHCG damage score (0-5) [11]: 1
- SETFA damage score (0-5) (Setaria faberi (SETFA) [12]): 0
